Experimental data reported in paper PMC9224473 (International Journal of Molecular Sciences, 2022).
Converted amounts (≈) assume the structure as drawn.

Experiments:
[1] = tested on: S. aureus ATCC 25923; assay: MIC, broth microdilution, standard strain; assay type: cell-based, Staphylococcus aureus; details: Staphylococcus aureus, ATCC25923, 19 h, 35 °C
[2] = tested on: S. aureus ATCC 29213; assay: MIC, broth microdilution, standard strain; assay type: cell-based, Staphylococcus aureus; details: Staphylococcus aureus, ATCC29213, 19 h, 35 °C
[3] = tested on: S. aureus T 5595; assay: MIC, broth microdilution, clinical strain; assay type: cell-based, Staphylococcus aureus; details: Staphylococcus aureus, T5595, 19 h, 35 °C
[4] = tested on: E. coli ATCC 25922; assay: MIC, broth microdilution, standard strain; assay type: cell-based, Escherichia coli; details: 35 °C; for MIC: Escherichia coli, ATCC25922, 19 h; for MIC E. coli ATCC 25922: 19 h
[5] = tested on: P. aeruginosa ATCC 15442; assay: MIC, broth microdilution, standard strain; assay type: cell-based, Pseudomonas aeruginosa; details: Pseudomonas aeruginosa, ATCC15442, 19 h, 35 °C
[6] = tested on: S. pasteuri KR 4358; assay: MIC, broth microdilution, clinical strain; assay type: cell-based, Staphylococcus pasteuri; details: Staphylococcus pasteuri, KR4358, 19 h, 35 °C
[7] = tested on: S. epidermidis KR 4243; assay: MIC, broth microdilution, clinical strain; assay type: cell-based, Staphylococcus epidermidis; details: Staphylococcus epidermidis, KR4243, 19 h, 35 °C
[8] = tested on: S. aureus ATCC 6538; assay: MIC, broth microdilution, standard strain; assay type: cell-based, Staphylococcus aureus; details: Staphylococcus aureus, ATCC6538, 19 h, 35 °C
[9] = tested on: SW620 (human metastatic colon cancer); assay: MTT cytotoxicity assay; assay type: cell-based; details: Homo sapiens, SW-620, 72 h, mean SD
Method: (§1) The human cell lines SW480 (primary colon cancer), SW620 (lymph node metastatic colon cancer from the same patient as primary cancer cells), HCT116 (colon carcinoma), HepG2 (liver cancer), and HaCaT (immortalized keratinocytes) were obtained from the American Type Culture Collection (ATCC, Rockville, MD, USA). The SW480, SW620 and HCT116 cells were grown in MEM (ThermoSci, Waltham, MA, USA), HepG2 and HaCaT in DMEM High Glucose (Biowest SAS, Nuaillé, France) supplemented with 10% foetal bovine serum (FBS), HEPES (20 mM), and antibiotics (100 U mL^−1 of Penicillin and 100 μg mL^−1 of Streptomycin). The cells were incubated in a humidified incubator at 37 °C/5% CO2, until 80–90% confluence was reached.
The cell viability was assessed by using of MTT salt [3-(4,5-dimethylthiazol-2-yl)-2,5-diphenyltetrazolium bromide] converted by mitochondrial dehydrogenase, occurring in living cells. […] The untreated cells were used as the control.
(§2) Subsequently, the medium was removed and dimethyl sulfoxide (DMSO) with isopropanol (1:1) was added to dissolve the formazan crystals. The optical density was measured using UVM 340 reader (ASYS Hitech GmbH, Eugendorf, Austria) at a wavelength of 570 nm. The experiments were repeated three times. The cell viability was calculated as the percent of MTT reduced in treated cells versus control cells (untreated cells). The number of viable cells cultured without tested compounds was assumed as 100%. A decreased relative MTT level indicates decreased cell viability. The IC50 values were estimated using CompuSyn version 1.0.

[10] = tested on: E. coli 510; assay: MIC, broth microdilution, clinical strain; assay type: cell-based, Escherichia coli; details: Escherichia coli, 510, 19 h, 35 °C
[11] = tested on: S. aureus NCTC 4163; assay: MIC, broth microdilution, standard strain; assay type: cell-based, Staphylococcus aureus; details: Staphylococcus aureus, NCTC4163, 19 h, 35 °C
[12] = tested on: E. coli 520; assay: MIC, broth microdilution, clinical strain; assay type: cell-based, Escherichia coli; details: Escherichia coli, 520, 19 h, 35 °C
[13] = tested on: E. coli 600; assay: MIC, broth microdilution, clinical strain; assay type: cell-based, Escherichia coli; details: Escherichia coli, 600, 19 h, 35 °C
[14] = tested on: S. epidermidis ATCC 35984; assay: MIC, broth microdilution, standard strain; assay type: cell-based, Staphylococcus epidermidis; details: Staphylococcus epidermidis, ATCC35984, 19 h, 35 °C
[15] = tested on: S. aureus T 5591; assay: MIC, broth microdilution, clinical strain; assay type: cell-based, Staphylococcus aureus; details: Staphylococcus aureus, T5591, 19 h, 35 °C
[16] = tested on: HepG2 (human liver cancer); assay: MTT cytotoxicity assay; assay type: cell-based; details: Homo sapiens, HepG2, 72 h, mean SD
Method: as §1
(§3) The cell viability was assessed by using of MTT salt [3-(4,5-dimethylthiazol-2-yl)-2,5-diphenyltetrazolium bromide] converted by mitochondrial dehydrogenase, occurring in living cells. The cells were seeded in 96-well plates at a density of 1 × 10^4 cells per well and allowed to adhere for 24 h at 37 °C in a CO2 humidified incubator. […]. The untreated cells were used as the control.
as §2, with “After 72 h incubation, the medium was replaced with 200 µL per well of free-serum medium containing 0.5 mg mL^−1 MTT and incubated for 4 h at 37 °C in a CO2 humidified incubator. Subsequently,” for “Subsequently,”

[17] = tested on: SW480 (human primary colon cancer); assay: MTT cytotoxicity assay; assay type: cell-based; details: Homo sapiens, SW480, 72 h, mean SD
Method: as §1, §3
as §2, with “After 72 h incubation, the medium was replaced with 200 µL per well of free-serum medium containing 0.5 mg mL^−1 MTT and incubated for 4 h at 37 °C in a CO2 humidified incubator. Subsequently,” for “Subsequently,”

[18] = tested on: HCT116 (human colon cancer); assay: MTT cytotoxicity assay; assay type: cell-based; details: Homo sapiens, HCT-116, 72 h, mean SD
Method: as §1, §3
as §2, with “After 72 h incubation, the medium was replaced with 200 µL per well of free-serum medium containing 0.5 mg mL^−1 MTT and incubated for 4 h at 37 °C in a CO2 humidified incubator. Subsequently,” for “Subsequently,”

[19] = tested on: HaCaT (human immortal keratinocyte cell line); assay: MTT cytotoxicity assay; assay type: cell-based; details: Homo sapiens, HaCaT, 72 h, mean SD, read-out: IC50 HaCaT (normal cells)
Method: as §1, §3
as §2, with “After 72 h incubation, the medium was replaced with 200 µL per well of free-serum medium containing 0.5 mg mL^−1 MTT and incubated for 4 h at 37 °C in a CO2 humidified incubator. Subsequently,” for “Subsequently,”

[20] = tested on: S. epidermidis ATCC 12228; assay: MIC, broth microdilution, standard strain; assay type: cell-based, Staphylococcus epidermidis; details: Staphylococcus epidermidis, ATCC12228, 19 h, 35 °C
[21] = tested on: P. aeruginosa 659; assay: MIC, broth microdilution, clinical strain; assay type: cell-based, Pseudomonas aeruginosa; details: Pseudomonas aeruginosa, 659, read-out: MIC P. aeruginosa 659, 19 h, 35 °C

| SMILES | MIC [1] | MIC [2] | MIC [3] | MIC [4] | MIC [5] | MIC [6] | MIC [7] | MIC [8] | IC50 [9] | MIC [10] | MIC [11] | MIC [12] | MIC [13] | MIC [14] | MIC [15] | IC50 [16] | IC50 [17] | IC50 [18] | IC50 [19] | MIC [20] | other results |
| --- | --- | --- | --- | --- | --- | --- | --- | --- | --- | --- | --- | --- | --- | --- | --- | --- | --- | --- | --- | --- | --- |
| CC(C)[C@@H]1CC[C@@H](C)C[C@H]1OC(=O)CN1CCN(c2cc3c(cc2F)c(=O)c(C(=O)O)cn3C2CC2)CC1 [Compound 2, 1-cyclopropyl-6-fluoro-7-{4-[2-((1R,2S,5R)-2-isopropyl-5-methylcyclohexyloxy)-2-oxoethyl]piperazin-1-yl}-4-oxo-1,4-dihydroquinoline-3-carboxylic acid] | 16 µg/mL (≈ 30.3 µM) | 16 µg/mL (≈ 30.3 µM) | 16 µg/mL (≈ 30.3 µM) | 8 µg/mL (≈ 15.2 µM) | 128 µg/mL (≈ 243 µM) | 16 µg/mL (≈ 30.3 µM) | 16 µg/mL (≈ 30.3 µM) | 16 µg/mL (≈ 30.3 µM) | 26.7 ± 0.2 µM | > 256 µg/mL | 16 µg/mL (≈ 30.3 µM) | 16 µg/mL (≈ 30.3 µM) | 16 µg/mL (≈ 30.3 µM) | 16 µg/mL (≈ 30.3 µM) | 16 µg/mL (≈ 30.3 µM) | 16.5 ± 0.4 µM | 36 ± 2.9 µM | 32.3 ± 1.5 µM | 25.7 ± 3 µM | 16 µg/mL (≈ 30.3 µM) | MIC [21]: 128 µg/mL (≈ 243 µM) |
| CC(C)[C@@H]1CC[C@@H](C)C[C@H]1OC(=O)CCN1CCN(c2cc3c(cc2F)c(=O)c(C(=O)O)cn3C2CC2)CC1 [Compound 3, 1-cyclopropyl-6-fluoro-7-{4-[3-((1R,2S,5R)-2-isopropyl-5-methylcyclohexyloxy)-3-oxopropyl]piperazin-1-yl}-4-oxo-1,4-dihydroquinoline-3-carboxylic acid] | 4 µg/mL (≈ 7.38 µM) | 4 µg/mL (≈ 7.38 µM) | 4 µg/mL (≈ 7.38 µM) | 2 to 4 µg/mL (≈ 3.69 to 7.38 µM) | 32 µg/mL (≈ 59.1 µM) | 4 µg/mL (≈ 7.38 µM) | 4 µg/mL (≈ 7.38 µM) | 4 µg/mL (≈ 7.38 µM) | 38.6 ± 3.8 µM | 256 µg/mL (≈ 473 µM) | 4 µg/mL (≈ 7.38 µM) | 4 µg/mL (≈ 7.38 µM) | 4 µg/mL (≈ 7.38 µM) | 4 µg/mL (≈ 7.38 µM) | 4 µg/mL (≈ 7.38 µM) | 36.8 ± 3.8 µM | 30.3 ± 1.2 µM | 27.1 ± 3.1 µM | 45.5 ± 5.1 µM | 4 µg/mL (≈ 7.38 µM) | MIC E. coli ATCC 25922 [4]: 4 µg/mL (≈ 7.38 µM); MIC [21]: 64 µg/mL (≈ 118 µM) |
| CC(C)[C@@H]1CC[C@@H](C)C[C@H]1OC(=O)CCCN1CCN(c2cc3c(cc2F)c(=O)c(C(=O)O)cn3C2CC2)CC1 [Compound 4, 1-cyclopropyl-6-fluoro-7-{4-[4-((1R,2S,5R)-2-isopropyl-5-methylcyclohexyloxy)-4-oxobutyl]piperazin-1-yl}-4-oxo-1,4-dihydroquinoline-3-carboxylic acid] | 4 µg/mL (≈ 7.2 µM) | 4 µg/mL (≈ 7.2 µM) | 4 µg/mL (≈ 7.2 µM) | 2 to 4 µg/mL (≈ 3.6 to 7.2 µM) | 64 µg/mL (≈ 115 µM) | 4 µg/mL (≈ 7.2 µM) | 4 µg/mL (≈ 7.2 µM) | 4 µg/mL (≈ 7.2 µM) | 54.3 ± 4.1 µM | 256 µg/mL (≈ 461 µM) | 4 µg/mL (≈ 7.2 µM) | 8 µg/mL (≈ 14.4 µM) | 4 µg/mL (≈ 7.2 µM) | 4 µg/mL (≈ 7.2 µM) | 4 µg/mL (≈ 7.2 µM) | 35.1 ± 4.4 µM | 36.8 ± 2.6 µM | 24.2 ± 0.1 µM | 30.5 ± 2.4 µM | 4 µg/mL (≈ 7.2 µM) | MIC E. coli ATCC 25922 [4]: 4 µg/mL (≈ 7.2 µM); MIC [21]: 256 µg/mL (≈ 461 µM) |
| COc1cccc2c1C(=O)c1c(O)c3c(c(O)c1C2=O)C[C@@](O)(C(=O)CO)C[C@@H]3O[C@H]1C[C@H](N)[C@H](O)[C@H](C)O1 [Doxorubicin, reference compound] | – | – | – | – | – | – | – | – | – | – | – | – | – | – | – | 0.38 µM | 0.75 ± 0.1 µM | 0.59 ± 0.02 µM | 0.29 ± 0.1 µM | – | – |
